Test system: MV-4-11 cells
Test: Gene expression microarray analysis (Affymetrix PrimeView) and GSEA
Type: cell-based, human
Set-up: RFU PODN (11730768_x_at) / Fold change /veh PODN (11730768_x_at) / RFU LINC00158 (11744669_a_at) / Fold change /veh LINC00158 (11744669_a_at) / RFU DUSP10 (11751237_a_at) / Fold change /veh DUSP10 (11751237_a_at) / RFU ID3 (11757404_x_at) / Fold change /veh ID3 (11757404_x_at) / RFU PLEKHG5 (11737974_s_at) / Fold change /veh PLEKHG5 (11737974_s_at) / RFU LRRC4B (11730491_at) / Fold change /veh LRRC4B (11730491_at) / RFU GIMAP4 (11747438_a_at) / Fold change /veh GIMAP4 (11747438_a_at) / RFU KRT8 (11758183_x_at) / Fold change /veh KRT8 (11758183_x_at) / RFU CNN1 (11734310_a_at) / Fold change /veh CNN1 (11734310_a_at) / RFU VPS37D (11726825_at) / Fold change /veh VPS37D (11726825_at) / RFU C10orf10 (11716522_x_at) / Fold change /veh C10orf10 (11716522_x_at) / RFU KIR2DL2 /// KIR2DL4 /// KIR2DL5A /// KIR2DL5B /// KIR2DS1 /// KIR2DS2 /// KIR2DS3 /// KIR2DS4 /// KIR3DL3 /// KIR3DL3 /// KIR3DS1 (11738374_at) / Fold change /veh KIR2DL2 /// KIR2DL4 /// KIR2DL5A /// KIR2DL5B /// KIR2DS1 /// KIR2DS2 /// KIR2DS3 /// KIR2DS4 /// KIR3DL3 /// KIR3DL3 /// KIR3DS1 (11738374_at) / RFU C1QL1 (11718748_at) / Fold change /veh C1QL1 (11718748_at) / RFU TMPRSS4 (11747572_a_at) / Fold change /veh TMPRSS4 (11747572_a_at) / RFU HAMP (11756126_x_at) / Fold change /veh HAMP (11756126_x_at) / RFU RNFT2 (11725882_a_at) / Fold change /veh RNFT2 (11725882_a_at) / RFU NR4A2 (11747474_a_at) / Fold change /veh NR4A2 (11747474_a_at) / RFU ABCC12 (11746883_a_at) / Fold change /veh ABCC12 (11746883_a_at) / RFU TMEM136 (11760407_x_at) / Fold change /veh TMEM136 (11760407_x_at) / RFU CLDN22 /// WWC2 (11732394_at) / Fold change /veh CLDN22 /// WWC2 (11732394_at) / RFU HLA-DPB1 (11760878_x_at) / Fold change /veh HLA-DPB1 (11760878_x_at) / RFU SPINT1 (11716480_a_at) / Fold change /veh SPINT1 (11716480_a_at) / RFU GAP43 (11754022_s_at) / Fold change /veh GAP43 (11754022_s_at) / RFU A4GNT (11735810_at) / Fold change /veh A4GNT (11735810_at) / RFU PRB3 (11715151_x_at) / Fold change /veh PRB3 (11715151_x_at) / RFU TUBB4B (11761932_at) / Fold change /veh TUBB4B (11761932_at) / RFU CAPN14 (11732068_a_at) / Fold change /veh CAPN14 (11732068_a_at) / RFU TMCC2 (11721928_a_at) / Fold change /veh TMCC2 (11721928_a_at) / RFU IRGQ (11745062_a_at) / Fold change /veh IRGQ (11745062_a_at) / RFU FAM174B (11720279_a_at) / Fold change /veh FAM174B (11720279_a_at) / RFU TMPRSS4 (11748680_a_at) / Fold change /veh TMPRSS4 (11748680_a_at) / RFU FAM212B (11763350_a_at) / Fold change /veh FAM212B (11763350_a_at) / RFU PLEKHG5 (11743358_a_at) / Fold change /veh PLEKHG5 (11743358_a_at) / RFU ZSCAN30 (11745921_a_at) / Fold change /veh ZSCAN30 (11745921_a_at) / RFU CMKLR1 (11741424_a_at) / Fold change /veh CMKLR1 (11741424_a_at) / RFU LOC101060620 /// MAPK8IP1 (11723275_at) / Fold change /veh LOC101060620 /// MAPK8IP1 (11723275_at) / RFU SPTSSB (11747773_x_at) / Fold change /veh SPTSSB (11747773_x_at) / RFU PRSS12 (11739890_at) / Fold change /veh PRSS12 (11739890_at) / RFU BIN1 (11741810_x_at) / Fold change /veh BIN1 (11741810_x_at) / RFU WNT11 (11732464_a_at) / Fold change /veh WNT11 (11732464_a_at) / RFU C10orf10 (11716521_a_at) / Fold change /veh C10orf10 (11716521_a_at) / RFU C5orf56 (11738089_at) / Fold change /veh C5orf56 (11738089_at) / RFU CYB561 (11721691_x_at) / Fold change /veh CYB561 (11721691_x_at) / RFU ANKRD19P (11752326_a_at) / Fold change /veh ANKRD19P (11752326_a_at) / RFU OR2T12 /// OR2T33 /// OR2T8 (11738714_s_at) / Fold change /veh OR2T12 /// OR2T33 /// OR2T8 (11738714_s_at) / RFU VCAN (11748164_a_at) / Fold change /veh VCAN (11748164_a_at) / RFU JSRP1 (11732532_at) / Fold change /veh JSRP1 (11732532_at) / RFU KRTAP10-11 (11738290_x_at) / Fold change /veh KRTAP10-11 (11738290_x_at) / RFU MYO3A (11730013_a_at) / Fold change /veh MYO3A (11730013_a_at) / RFU EBF3 (11725865_a_at) / Fold change /veh EBF3 (11725865_a_at) / RFU CAMK2N1 (11719241_x_at) / Fold change /veh CAMK2N1 (11719241_x_at) / RFU C5orf56 (11738088_a_at) / Fold change /veh C5orf56 (11738088_a_at) / RFU OLFML3 (11715873_a_at) / Fold change /veh OLFML3 (11715873_a_at) / RFU LOC100653217 /// NTM (11731650_a_at) / Fold change /veh LOC100653217 /// NTM (11731650_a_at) / RFU MAPK11 (11762145_a_at) / Fold change /veh MAPK11 (11762145_a_at) / RFU FIZ1 (11724087_x_at) / Fold change /veh FIZ1 (11724087_x_at) / RFU OASL (11726364_x_at) / Fold change /veh OASL (11726364_x_at) / RFU SOX15 (11748057_x_at) / Fold change /veh SOX15 (11748057_x_at) / RFU CD79A (11719716_a_at) / Fold change /veh CD79A (11719716_a_at) / RFU HIST1H1D (11736915_at) / Fold change /veh HIST1H1D (11736915_at) / RFU CASKIN2 (11723855_a_at) / Fold change /veh CASKIN2 (11723855_a_at) / RFU LOC730098 (11760151_x_at) / Fold change /veh LOC730098 (11760151_x_at) / RFU OR4N2 (11742367_at) / Fold change /veh OR4N2 (11742367_at) / RFU PRRT2 (11749266_a_at) / Fold change /veh PRRT2 (11749266_a_at) / RFU SNX32 (11753110_a_at) / Fold change /veh SNX32 (11753110_a_at) / RFU CDHR5 (11726645_a_at) / Fold change /veh CDHR5 (11726645_a_at) / RFU RCAN1 (11760418_a_at) / Fold change /veh RCAN1 (11760418_a_at) / RFU FAM167A (11723789_a_at) / Fold change /veh FAM167A (11723789_a_at) / RFU FAM26E (11764081_at) / Fold change /veh FAM26E (11764081_at) / RFU ISYNA1 (11749810_s_at) / Fold change /veh ISYNA1 (11749810_s_at) / RFU ACY1 (11761880_at) / Fold change /veh ACY1 (11761880_at) / RFU 11764098_at / Fold change /veh 11764098_at / RFU SAMD14 (11745864_x_at) / Fold change /veh SAMD14 (11745864_x_at) / RFU NPB (11741838_a_at) / Fold change /veh NPB (11741838_a_at) / RFU TMPRSS6 (11731388_a_at) / Fold change /veh TMPRSS6 (11731388_a_at) / RFU KRTAP10-2 (11738614_at) / Fold change /veh KRTAP10-2 (11738614_at) / RFU ARHGAP8 /// PRR5-ARHGAP8 (11727945_x_at) / Fold change /veh ARHGAP8 /// PRR5-ARHGAP8 (11727945_x_at) / RFU KRTAP5-7 /// NADSYN1 (11734609_at) / Fold change /veh KRTAP5-7 /// NADSYN1 (11734609_at) / RFU RASL12 (11751679_a_at) / Fold change /veh RASL12 (11751679_a_at) / RFU CDKN2B (11736163_a_at) / Fold change /veh CDKN2B (11736163_a_at) / RFU PRF1 (11729649_at) / Fold change /veh PRF1 (11729649_at) / RFU, ZNF638 /// ZNF638-IT1 / Fold change vs veh, ZNF638 /// ZNF638-IT1 / RFU, PANK3 / Fold change vs veh, PANK3 / RFU, SH3YL1 / Fold change vs veh, SH3YL1 / RFU, ZEB2 / Fold change vs veh, ZEB2 / RFU, NRIP1 / Fold change vs veh, NRIP1 / RFU, PTTG1IP / Fold change vs veh, PTTG1IP / RFU, CAPN2 / Fold change vs veh, CAPN2 / RFU, MED14 / Fold change vs veh, MED14 / RFU, SNORA58 / Fold change vs veh, SNORA58 / RFU, C1orf63 / Fold change vs veh, C1orf63 / RFU, LRRFIP1 / Fold change vs veh, LRRFIP1 / RFU, NDUFAF7 / Fold change vs veh, NDUFAF7 / RFU, SLC12A2 / Fold change vs veh, SLC12A2 / RFU, IBTK / Fold change vs veh, IBTK / RFU, ESF1 / Fold change vs veh, ESF1 / Fold change vs veh, TMEM50B / RFU, TAOK1 / Fold change vs veh, TAOK1 / RFU, ACBD3 / Fold change vs veh, ACBD3 / RFU, TMA16 / Fold change vs veh, TMA16 / RFU, RWDD3 / Fold change vs veh, RWDD3 / RFU, BCAT1 / Fold change vs veh, BCAT1 / RFU, EDEM3 / Fold change vs veh, EDEM3 / RFU, TMEM33 / Fold change vs veh, TMEM33 / RFU, WDR75 / Fold change vs veh, WDR75 / RFU, AHCTF1 / Fold change vs veh, AHCTF1 / RFU, TFRC / Fold change vs veh, TFRC / RFU, ZDHHC17 / Fold change vs veh, ZDHHC17 / RFU, NOM1 / Fold change vs veh, NOM1 / RFU, ARL8B / Fold change vs veh, ARL8B / RFU, ZBTB11 / Fold change vs veh, ZBTB11 / RFU, TAMM41 / Fold change vs veh, TAMM41 / RFU, KIAA1704 /// LOC100996395 / Fold change vs veh, KIAA1704 /// LOC100996395 / RFU, ING1 / Fold change vs veh, ING1 / RFU, TRMT61B / Fold change vs veh, TRMT61B / RFU, FUBP3 / Fold change vs veh, FUBP3 / RFU, TP53 / Fold change vs veh, TP53 / RFU, TNKS2 / Fold change vs veh, TNKS2 / RFU, ZFP14 / Fold change vs veh, ZFP14 / RFU, ACTR2 / Fold change vs veh, ACTR2 / RFU, PPP3R1 / Fold change vs veh, PPP3R1 / RFU, PIK3R1 / Fold change vs veh, PIK3R1 / RFU, HNRNPA1 / Fold change vs veh, HNRNPA1 / RFU, RNF170 / Fold change vs veh, RNF170 / RFU, ZNF28 / Fold change vs veh, ZNF28 / RFU, RNGTT / Fold change vs veh, RNGTT / RFU, OGT / Fold change vs veh, OGT / RFU, BRD1 / Fold change vs veh, BRD1 / RFU, MARS / Fold change vs veh, MARS / RFU, ZNF655 / Fold change vs veh, ZNF655 / RFU, FAHD1 / Fold change vs veh, FAHD1 / RFU, BDP1 / Fold change vs veh, BDP1 / RFU, LRRCC1 / Fold change vs veh, LRRCC1 / RFU, ARID1A / Fold change vs veh, ARID1A / RFU, ZNF146 / Fold change vs veh, ZNF146 / RFU, ZNF330 / Fold change vs veh, ZNF330 / RFU, GPN3 / Fold change vs veh, GPN3 / RFU, C9orf123 / Fold change vs veh, C9orf123 / RFU, N4BP2L2 / Fold change vs veh, N4BP2L2 / RFU, ARFIP1 / Fold change vs veh, ARFIP1 / RFU, FAM179B / Fold change vs veh, FAM179B / RFU, BCL10 / Fold change vs veh, BCL10 / RFU, UHRF1BP1L / Fold change vs veh, UHRF1BP1L / RFU, BET1 / Fold change vs veh, BET1 / RFU, CNOT2 / Fold change vs veh, CNOT2 / RFU, ZNF268 / Fold change vs veh, ZNF268 / Fold change vs veh, ZNF507 / RFU, DGCR2 / Fold change vs veh, DGCR2 / RFU, WDSUB1 / Fold change vs veh, WDSUB1 / Fold change vs veh, HSP90B1 /// MIR3652 / RFU, ADSS / Fold change vs veh, ADSS / RFU, GK / Fold change vs veh, GK / RFU, ZNF148 / Fold change vs veh, ZNF148 / RFU, TAF9 / Fold change vs veh, TAF9 / RFU, SLC1A5 / Fold change vs veh, SLC1A5 / RFU, SLMO2 / Fold change vs veh, SLMO2 / RFU, ABCC4 / Fold change vs veh, ABCC4 / RFU, LOC101060439 /// RAP1B / Fold change vs veh, LOC101060439 /// RAP1B / RFU, RFX7 / Fold change vs veh, RFX7 / RFU, GTPBP10 / Fold change vs veh, GTPBP10 / RFU, CNEP1R1 / Fold change vs veh, CNEP1R1 / RFU, BIVM-ERCC5 /// ERCC5 / Fold change vs veh, BIVM-ERCC5 /// ERCC5 / RFU, ILF3 / Fold change vs veh, ILF3 / RFU 11762660_at / Fold change /veh 11762660_at / RFU VCAN (11757783_s_at) / Fold change /veh VCAN (11757783_s_at) / RFU DDX43 (11728927_at) / Fold change /veh DDX43 (11728927_at) / RFU KRT8 (11758188_x_at) / Fold change /veh KRT8 (11758188_x_at) / RFU NKD1 (11759106_at) / Fold change /veh NKD1 (11759106_at) / RFU SRD5A1 (11742802_a_at) / Fold change /veh SRD5A1 (11742802_a_at) / RFU TPSAB1 /// TPSB2 (11721975_s_at) / Fold change /veh TPSAB1 /// TPSB2 (11721975_s_at) / RFU GSTM3 (11746129_a_at) / Fold change /veh GSTM3 (11746129_a_at) / RFU IL23R (11737362_x_at) / Fold change /veh IL23R (11737362_x_at) / RFU TMEM51 (11727254_a_at) / Fold change /veh TMEM51 (11727254_a_at) / RFU PIWIL2 (11732686_x_at) / Fold change /veh PIWIL2 (11732686_x_at) / RFU ORM1 (11744905_x_at) / Fold change /veh ORM1 (11744905_x_at) / RFU CCDC152 (11743942_at) / Fold change /veh CCDC152 (11743942_at) / RFU ECM1 (11717891_a_at) / Fold change /veh ECM1 (11717891_a_at) / RFU IL23R (11748794_a_at) / Fold change /veh IL23R (11748794_a_at) / RFU TNFAIP8L3 (11732012_x_at) / Fold change /veh TNFAIP8L3 (11732012_x_at) / RFU MBOAT4 (11741988_at) / Fold change /veh MBOAT4 (11741988_at) / RFU 11764193_at / Fold change /veh 11764193_at / RFU TMEM53 (11763286_at) / Fold change /veh TMEM53 (11763286_at) / RFU MAGEB2 (11727129_at) / Fold change /veh MAGEB2 (11727129_at) / RFU TMEM200A (11744735_a_at) / Fold change /veh TMEM200A (11744735_a_at) / RFU CCDC152 (11751479_a_at) / Fold change /veh CCDC152 (11751479_a_at) / RFU FAM211A (11726209_a_at) / Fold change /veh FAM211A (11726209_a_at) / RFU RGS16 (11746705_a_at) / Fold change /veh RGS16 (11746705_a_at) / RFU VCAN (11755009_s_at) / Fold change /veh VCAN (11755009_s_at) / RFU RHOB (11743442_s_at) / Fold change /veh RHOB (11743442_s_at) / RFU RGS16 (11720943_a_at) / Fold change /veh RGS16 (11720943_a_at) / RFU RGS16 (11720944_at) / Fold change /veh RGS16 (11720944_at) / RFU, VPS4B / Fold change vs veh, VPS4B / RFU, CREB1 / Fold change vs veh, CREB1 / RFU, DNAJC13 / Fold change vs veh, DNAJC13 / RFU, GNAQ / Fold change vs veh, GNAQ / RFU, CDK5R1 / Fold change vs veh, CDK5R1 / RFU, ZRANB3 / Fold change vs veh, ZRANB3 / RFU, CUL4A / Fold change vs veh, CUL4A / RFU, CCNY / Fold change vs veh, CCNY / RFU, UFL1 / Fold change vs veh, UFL1 / RFU, COG3 / Fold change vs veh, COG3 / RFU, DIAPH2 / Fold change vs veh, DIAPH2 / RFU, SKA2 / Fold change vs veh, SKA2 / RFU, AFF3 / Fold change vs veh, AFF3 / RFU, LMF1 / Fold change vs veh, LMF1 / RFU, IPO11 / Fold change vs veh, IPO11 / RFU, DFFB / Fold change vs veh, DFFB / RFU, FOXP1 / Fold change vs veh, FOXP1 / RFU, CARD8 / Fold change vs veh, CARD8 / RFU, STRN3 / Fold change vs veh, STRN3 / RFU, ADK / Fold change vs veh, ADK / RFU, RASSF2 / Fold change vs veh, RASSF2 / RFU, WIPF1 / Fold change vs veh, WIPF1 / RFU, LARP1B / Fold change vs veh, LARP1B / RFU, RASA1 / Fold change vs veh, RASA1 / RFU, RB1 / Fold change vs veh, RB1 / RFU, PPFIA1 / Fold change vs veh, PPFIA1 / RFU, MAT2A / Fold change vs veh, MAT2A / RFU, CCT5 / Fold change vs veh, CCT5 / RFU, WDR92 / Fold change vs veh, WDR92 / RFU, CUX1 / Fold change vs veh, CUX1 / RFU, TTC7A / Fold change vs veh, TTC7A / RFU, TMEM135 / Fold change vs veh, TMEM135 / RFU, DEPTOR / Fold change vs veh, DEPTOR / RFU, CPM / Fold change vs veh, CPM / RFU, DNAJB6 / Fold change vs veh, DNAJB6 / RFU, CACNA2D3 / Fold change vs veh, CACNA2D3 / RFU, DTX4 / Fold change vs veh, DTX4 / RFU, TFCP2 / Fold change vs veh, TFCP2 / RFU, GMCL1 /// GMCL1P1 / Fold change vs veh, GMCL1 /// GMCL1P1 / RFU, AEBP2 / Fold change vs veh, AEBP2 / RFU, SNHG1 /// SNORD22 /// SNORD25 /// SNORD26 /// SNORD27 /// SNORD28 /// SNORD29 /// SNORD31 / Fold change vs veh, SNHG1 /// SNORD22 /// SNORD25 /// SNORD26 /// SNORD27 /// SNORD28 /// SNORD29 /// SNORD31 / Fold change (Aza/veh), C12orf56 (ProbeSet 11735607_a_at) / Fold change (ACY-1035/veh), C12orf56 (ProbeSet 11735607_a_at) / Fold change (Aza/veh), FGFR1OP (ProbeSet 11751329_s_at) / Fold change (ACY-1035/veh), FGFR1OP (ProbeSet 11751329_s_at) / Fold change (Aza/veh), VPS36 (ProbeSet 11739960_a_at) / Fold change (ACY-1035/veh), VPS36 (ProbeSet 11739960_a_at) / RFU SYPL1 (11715823_x_at) / Fold change /veh SYPL1 (11715823_x_at) / RFU IGFBP7 (11715501_s_at) / Fold change /veh IGFBP7 (11715501_s_at) / RFU REEP3 (11722064_at) / Fold change /veh REEP3 (11722064_at) / RFU IGLL1 (11728026_x_at) / Fold change /veh IGLL1 (11728026_x_at): dose or concentration left out as unconfirmed
Conditions: ProbeSet 11717876_a_at; LIST D

SMILES: Nc1ncn([C@@H]2O[C@H](CO)[C@@H](O)[C@H]2O)c(=O)n1 [azacitidine]
- Fold change vs veh, PPFIA1: 0.68
